Assay results taken from patent publication US20250304623A1, “PEPTIDES FOR INTRACELLULAR DELIVERY” (UNIVERSIDADE DE SANTIAGO DE COMPOSTELA, priority 2022, published 2025).
*: point of attachment. NHNH2 = NN*

Tests used:
Assay type in all cases: cell-based
[1] = tested on: ARPE19 cells expressing EGFP; test: Cas9-RNP delivery against EGFP (gene editing, plate reader), ARPE19
Method: (§1) To generate an EGFP expressing HeLa cell line, HeLa cells were transfected with EGFP pDNA (pEGFP-C1, Clontech) and stable transfectants were selected with 400 μg/mL of G-418 (Millipore). Green clones were selected by epifluorescence microscopy and tested for EGFP expression stability through several passages. […] All other EGFP-expressing cell lines were obtained in a similar way from parent non-EGFP-expressing cell lines.
(§2) Cells expressing EGFP were seeded in a 96 well plate the day before the experiment at a concentration of 50,000 cell/mL (100 μL/w) in DMEM+10% FBS+1% Gln-Abt. For robotic library screening, the delivery of Cas9-RNP against EGFP (RNP designed to knock-out the gene encoding for the enhanced green fluorescent protein (EGFP)) was performed. For RNP assembly, 9.2 μL of crRNA and 9.2 μL of tracrRNA were mixed in 211.6 μL of Nuclease-Free Duplex Buffer (IDT), incubated for 5 min at 95° C. and slowly cooled at rt (see I. Lostalé-Seijo, et al. Peptide/Cas9 nanostructures for ribonucleoprotein cell membrane transport and gene edition, Chem. Sci., 2017). Cas9 protein was dissolved in DMEM at a final concentration of 4 μM and equal volumes of the RNA complex and Cas9 were mixed and incubated for 5 min at rt. 75 μL of the corresponding amphiphile concentrations were added to 5 μL of RNP at 2 μM. The mixture was shaken for 30 min at room temperature before the addition to the cells. The cell medium was aspirated, and cells were washed twice with PBS. Cells were covered with 30 μL of DMEM and 20 μL of the RNP/amphiphile complexes were added to the cells (final peptide concentrations=2.5, 5 and 10 μM; final Cas9-RNP concentration=50 nM) and incubated for 4 h. After the incubation, the medium was replaced by 100 μL of fresh DMEM supplemented with 10% FBS. The total EGFP fluorescence was quantified after 72 h in a plate reader (FIG. 2, Table 1 (right) and Table 6). All experiments were done in triplicate. […]
(§3) Tables 26-31 show the mean (triplicates) percentage of gene editing, accounted by GFP fluorescence intensity decrease (% of reduction), measured after the transfection of Cas9-RNP by different amphiphiles at different concentrations in a variety of cell lines. Background values, accounted by untreated control cells, were subtracted for processing.

[2] = tested on: HCT116 cells expressing EGFP; test: Cas9-RNP delivery against EGFP (gene editing, plate reader), HCT116
Method: as §1, §2, §3

[3] = tested on: Hela cells expressing EGFP; test: Cas9-RNP delivery against EGFP (gene editing, plate reader), HeLa; conditions: for % GFP silencing due to gene editing (Cas9-RNP): HeLa
Method: as §1
Cells expressing EGFP were seeded in a 96 well plate the day before the experiment at a concentration of 50,000 cell/mL (100 μL/w) in DMEM+10% FBS+1% Gln-Abt. For robotic library screening, the delivery of Cas9-RNP against EGFP (RNP designed to knock-out the gene encoding for the enhanced green fluorescent protein (EGFP)) was performed. For RNP assembly, 9.2 μL of crRNA and 9.2 μL of tracrRNA were mixed in 211.6 μL of Nuclease-Free Duplex Buffer (IDT), incubated for 5 min at 95° C. and slowly cooled at rt (see I. Lostalé-Seijo, et al. Peptide/Cas9 nanostructures for ribonucleoprotein cell membrane transport and gene edition, Chem. Sci., 2017). Cas9 protein was dissolved in DMEM at a final concentration of 4 μM and equal volumes of the RNA complex and Cas9 were mixed and incubated for 5 min at rt. 75 μL of the corresponding amphiphile concentrations were added to 5 μL of RNP at 2 μM. The mixture was shaken for 30 min at room temperature before the addition to the cells. The cell medium was aspirated, and cells were washed twice with PBS. Cells were covered with 30 μL of DMEM and 20 μL of the RNP/amphiphile complexes were added to the cells (final peptide concentrations=2.5, 5 and 10 μM; final Cas9-RNP concentration=50 nM) and incubated for 4 h. After the incubation, the medium was replaced by 100 μL of fresh DMEM supplemented with 10% FBS. The total EGFP fluorescence was quantified after 72 h in a plate reader (FIG. 2, Table 1 (right) and Table 6). All experiments were done in triplicate.
Tables 1-7: RLuc (pDNA) or EGFP (mRNA) expression levels were normalized to Lipofectamine reagents (value=1) and expressed as fold-times signal increase. In the case of siRNA, the siRNA treated cells fluorescence was compared with siMOCK control fluorescence, while Cas9-RNP mediated knockout was measured against the fluorescence of untreated cells. In both siRNA and Cas9-RNP, values are expressed as % fluorescence reduction. Amphiphile concentration was 5 μM in all cases. All experiments were performed in triplicate.
as §3

[4] = Petroselinyl, 15 μM, Hela cells

Substance | percentage of gene editing, GFP fluorescence intensity decrease (% of reduction) ([1]; Dodecanal, 15 μM) [%] | percentage of gene editing, GFP fluorescence intensity decrease (% of reduction) ([2]; Dodecanal, 5 μM) [%] | percentage of gene editing, GFP fluorescence intensity decrease (% of reduction) ([2]; Dodecanal, 10 μM) [%] | percentage of gene editing, GFP fluorescence intensity decrease (% of reduction) ([2]; Dodecanal, 15 μM) [%] | percentage of gene editing, GFP fluorescence intensity decrease (% of reduction) ([3]; Myristoleyl, 5 μM, HeLa cells) [%] | percentage of gene editing, GFP fluorescence intensity decrease (% of reduction) ([3]; Myristoleyl, 15 μM, Hela cells) [%] | percentage of gene editing, GFP fluorescence intensity decrease (% of reduction) ([1]; Oleyl, 10 μM) [%] | percentage of gene editing, GFP fluorescence intensity decrease (% of reduction) ([1]; Petroselinyl, 15 μM) [%] | percentage of gene editing, GFP fluorescence intensity decrease (% of reduction) ([2]; Oleyl, 5 μM) [%] | percentage of gene editing, GFP fluorescence intensity decrease (% of reduction) ([2]; Palmitoleyl, 5 μM) [%] | percentage of gene editing, GFP fluorescence intensity decrease (% of reduction) ([2]; Palmitoleyl, 15 μM) [%] | percentage of gene editing, GFP fluorescence intensity decrease (% of reduction) [3, 4] [%] | percentage of gene editing, GFP fluorescence intensity decrease (% of reduction) ([1]; Oleyl, 5 μM) [%] | other results
Ac-RK*LRRLLRK*-NH2 (Ac-RK(NHNH2)LRRLLRK(NHNH2)-NH2; not fully specified; printed as Ac-RK*LRRLLRK*-NH2; also: K*2,K*9: native or modified lysine (ε-amide to a linker)) [Peptide 9.2] | −17 | −34 | −15 | −22 | −12 | 52 |  |  |  |  |  |  |  | percentage of gene editing, GFP fluorescence intensity decrease (% of reduction) ([1]; Dodecanal, 5 μM): −2%; percentage of gene editing, GFP fluorescence intensity decrease (% of reduction) ([3]; Dodecanal, 5 μM, Hela cells): 6%; percentage of gene editing, GFP fluorescence intensity decrease (% of reduction) ([3]; Dodecanal, 10 μM, HeLa cells): 14%; percentage of gene editing, GFP fluorescence intensity decrease (% of reduction) ([3]; Dodecanal, 15 μM, Hela cells): 47%
Ac-RRHK*RLK*RRLK*RL-NH2 (Ac-RRHK(NHNH2)RLK(NHNH2)RRLK(NHNH2)RL-NH2; not fully specified; printed as Ac-RRHK*RLK*RRLK*RL-NH2; also: K*4,K*7,K*11: native or modified lysine (ε-amide to a linker)) [13(Leu-His)] |  | −28 | −5 |  | 16 |  | −6 | 22 | 7 | 4 | 0 | 81 |  | percentage of gene editing, GFP fluorescence intensity decrease (% of reduction) ([1]; Palmitoleyl, 10 μM): −13%; percentage of gene editing, GFP fluorescence intensity decrease (% of reduction) ([1]; Palmitoleyl, 15 μM): 6%; percentage of gene editing, GFP fluorescence intensity decrease (% of reduction) ([2]; Myristoleyl, 5 μM): 22%; percentage of gene editing, GFP fluorescence intensity decrease (% of reduction) ([2]; Myristoleyl, 10 μM): −105%; percentage of gene editing, GFP fluorescence intensity decrease (% of reduction) ([2]; Petroselinyl, 5 μM): 18%; % GFP silencing due to gene editing (Cas9-RNP) ([3]; 5 μM, Myr tail): 73%; percentage of gene editing, GFP fluorescence intensity decrease (% of reduction) ([3]; Myristoleyl, 10 μM, HeLa cells): 73%; percentage of gene editing, GFP fluorescence intensity decrease (% of reduction) ([3]; Petroselinyl, 5 μM, HeLa cells): 39%; percentage of gene editing, GFP fluorescence intensity decrease (% of reduction) ([3]; Petroselinyl, 10 μM, Hela cells): 74%
Ac-RRLK*RLK*RRLK*RL-NH2 [Peptide 13.3] | 18 | 25 | 10 | 20 | 29 | 86 |  | −11 | −1 | −18 | 18 | 85 | 20 | percentage of gene editing, GFP fluorescence intensity decrease (% of reduction) ([1]; Dodecanal, 10 μM): 13%; percentage of gene editing, GFP fluorescence intensity decrease (% of reduction) ([1]; Myristoleyl, 10 μM): 32%; percentage of gene editing, GFP fluorescence intensity decrease (% of reduction) ([1]; Myristoleyl, 15 μM): 38%; percentage of gene editing, GFP fluorescence intensity decrease (% of reduction) ([2]; Myristoleyl, 15 μM): 10%; % GFP silencing due to gene editing (Cas9-RNP) ([3]; 5 μM, Ole tail): 76%; % GFP silencing due to gene editing (Cas9-RNP) ([3]; 5 μM, Pal tail): 68%; % GFP silencing due to gene editing (Cas9-RNP) ([3]; 5 μM, Pet tail): 63%; percentage of gene editing, GFP fluorescence intensity decrease (% of reduction) ([3]; Palmitoleyl, 5 μM, HeLa cells): 18%; percentage of gene editing, GFP fluorescence intensity decrease (% of reduction) ([3]; Palmitoleyl, 10 μM, HeLa cells): 68%; percentage of gene editing, GFP fluorescence intensity decrease (% of reduction) ([3]; Palmitoleyl, 15 μM, Hela cells): 80%
Ac-RRLK*RLLRRLK*RL-NH2 (Ac-RRLK(NHNH2)RLLRRLK(NHNH2)RL-NH2; not fully specified; printed as Ac-RRLK*RLLRRLK*RL-NH2; also: K*4,K*11: native or modified lysine (ε-amide to a linker)) [Peptide 13.2] |  |  |  |  |  |  | −7 |  | −6 |  |  |  | 13 | percentage of gene editing, GFP fluorescence intensity decrease (% of reduction) ([3]; Oleyl, 5 μM, HeLa cells): 21%; percentage of gene editing, GFP fluorescence intensity decrease (% of reduction) ([3]; Oleyl, 10 μM, HeLa cells): 62%
